Measured values as given in ChEMBL document CHEMBL5150068, “Structure-Based Design of Tropane Derivatives as a Novel Series of CCR5 Antagonists with Broad-Spectrum Anti-HIV-1 Activities and Improved Oral Bioavailability” (J Med Chem, 2022).

Columns and labels:
[1] = Cytotoxicity against human TZM-bl cells incubated for 48 hrs by MTT assay; assay type: toxicity, cell-based
[2] = Cytotoxicity against human PM1 cells incubated for 48 hrs by MTT assay; assay type: toxicity, cell-based
[3] = Cytotoxicity against human HOS-CD4-CCR5 cells incubated for 48 hrs by MTT assay; assay type: toxicity, cell-based
[4] = Cytotoxicity against human PBMC cells incubated for 48 hrs by MTT assay; assay type: toxicity, cell-based
[5] = Cmax in Sprague-Dawley rat at 10 mg/kg, po measured upto 24 hrs; assay type: ADME, organism-based; design: time < 24 hrs, dose 10 mg/kg, route po; conditions: in vivo
[6] = Tmax in Sprague-Dawley rat at 10 mg/kg, po measured upto 24 hrs; assay type: ADME, organism-based; conditions: in vivo
[7] = AUC (0 to infinitive) in Sprague-Dawley rat at 10 mg/kg, po measured upto 24 hrs; assay type: ADME, organism-based; design: dose 10 mg/kg, time < 24 hrs, route po; conditions: Sprague-Dawley, in vivo
[8] = Half life in Sprague-Dawley rat at 2 mg/kg, iv measured upto 24 hrs; assay type: ADME, organism-based; conditions: Sprague-Dawley, in vivo
[9] = Half life in Sprague-Dawley rat at 1 mg/kg, iv measured upto 24 hrs; assay type: ADME, organism-based; conditions: in vivo
[10] = Clearance in Sprague-Dawley rat at 1 mg/kg, iv measured upto 24 hrs; assay type: ADME, organism-based; conditions: in vivo
Cytochrome P450 1A2 = target: T1, Cytochrome P450 1A2 (Homo sapiens, UniProt P05177); test: Inhibition of CYP1A2 (unknown origin); assay type: ADME
T1 sequence (P05177 whole entry): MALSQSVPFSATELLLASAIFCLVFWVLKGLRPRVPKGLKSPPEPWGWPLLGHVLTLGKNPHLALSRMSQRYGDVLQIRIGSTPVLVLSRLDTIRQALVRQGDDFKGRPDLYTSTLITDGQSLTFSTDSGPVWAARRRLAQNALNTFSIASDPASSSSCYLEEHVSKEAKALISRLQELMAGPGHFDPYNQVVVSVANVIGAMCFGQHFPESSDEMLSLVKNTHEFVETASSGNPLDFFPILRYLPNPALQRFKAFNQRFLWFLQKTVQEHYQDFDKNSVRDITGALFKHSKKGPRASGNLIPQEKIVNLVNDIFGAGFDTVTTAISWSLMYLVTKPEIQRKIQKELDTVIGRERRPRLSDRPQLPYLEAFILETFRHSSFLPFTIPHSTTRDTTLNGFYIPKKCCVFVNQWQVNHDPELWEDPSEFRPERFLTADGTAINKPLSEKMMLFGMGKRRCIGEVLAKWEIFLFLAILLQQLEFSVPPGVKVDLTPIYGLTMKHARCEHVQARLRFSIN

Cytochrome P450 2C9 = Cytochrome P450 2C9 (Homo sapiens, UniProt P11712); test: Inhibition of CYP2C9 (unknown origin); assay type: ADME
Cytochrome P450 2C19 = Cytochrome P450 2C19 (Homo sapiens, UniProt P33261); test: Inhibition of CYP2C19 (unknown origin); assay type: ADME
Cytochrome P450 2D6 = Cytochrome P450 2D6 (Homo sapiens, UniProt P10635); test: Inhibition of CYP2D6 (unknown origin); assay type: ADME
Sequence of Cytochrome P450 2D6 (P10635 whole entry): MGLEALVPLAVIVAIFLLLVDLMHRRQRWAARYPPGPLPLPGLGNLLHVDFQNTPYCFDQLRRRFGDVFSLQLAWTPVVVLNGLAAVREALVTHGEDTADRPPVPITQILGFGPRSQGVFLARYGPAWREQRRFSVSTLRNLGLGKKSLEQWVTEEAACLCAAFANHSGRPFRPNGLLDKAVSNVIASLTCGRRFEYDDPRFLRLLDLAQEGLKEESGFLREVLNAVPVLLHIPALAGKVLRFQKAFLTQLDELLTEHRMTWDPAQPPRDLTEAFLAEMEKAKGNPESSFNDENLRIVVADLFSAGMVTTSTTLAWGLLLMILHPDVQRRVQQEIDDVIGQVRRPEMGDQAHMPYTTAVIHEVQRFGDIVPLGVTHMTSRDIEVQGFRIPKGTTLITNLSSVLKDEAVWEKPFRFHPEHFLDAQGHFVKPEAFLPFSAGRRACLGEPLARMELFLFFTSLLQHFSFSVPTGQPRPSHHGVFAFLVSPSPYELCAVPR

Sequence of Cytochrome P450 2C9 (P11712 whole entry): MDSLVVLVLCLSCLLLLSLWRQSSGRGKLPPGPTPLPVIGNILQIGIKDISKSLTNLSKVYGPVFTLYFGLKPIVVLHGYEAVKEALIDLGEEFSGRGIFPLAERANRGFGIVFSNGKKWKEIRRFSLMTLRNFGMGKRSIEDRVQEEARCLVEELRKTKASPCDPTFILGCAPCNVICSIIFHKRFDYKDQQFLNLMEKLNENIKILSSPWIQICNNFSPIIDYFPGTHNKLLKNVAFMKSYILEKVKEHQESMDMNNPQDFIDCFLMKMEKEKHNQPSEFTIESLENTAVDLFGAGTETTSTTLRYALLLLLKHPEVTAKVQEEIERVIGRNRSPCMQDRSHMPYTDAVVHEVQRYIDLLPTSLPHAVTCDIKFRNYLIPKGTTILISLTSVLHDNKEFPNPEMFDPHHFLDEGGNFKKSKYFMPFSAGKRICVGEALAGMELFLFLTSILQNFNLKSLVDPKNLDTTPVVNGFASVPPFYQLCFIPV
Sequence of Cytochrome P450 2C19 (P33261 whole entry): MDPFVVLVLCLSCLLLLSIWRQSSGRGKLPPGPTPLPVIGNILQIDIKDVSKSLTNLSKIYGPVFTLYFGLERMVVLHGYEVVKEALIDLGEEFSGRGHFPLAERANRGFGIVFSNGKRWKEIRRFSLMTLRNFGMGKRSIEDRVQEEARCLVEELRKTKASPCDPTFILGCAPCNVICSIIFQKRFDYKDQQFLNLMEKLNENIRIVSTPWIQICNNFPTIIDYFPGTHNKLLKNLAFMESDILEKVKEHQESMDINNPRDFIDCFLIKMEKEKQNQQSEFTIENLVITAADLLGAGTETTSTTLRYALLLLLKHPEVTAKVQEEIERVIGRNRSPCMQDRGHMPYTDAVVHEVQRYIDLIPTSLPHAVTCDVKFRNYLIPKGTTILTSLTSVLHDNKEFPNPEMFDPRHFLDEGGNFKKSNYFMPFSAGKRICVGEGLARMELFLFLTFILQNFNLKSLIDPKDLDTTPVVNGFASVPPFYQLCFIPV

Cc1nnc(C(C)C)n1[C@@H]1C[C@H]2CC[C@@H](C1)N2CC[C@H](NC(=O)C1CCC(F)(F)CC1)c1ccccc1 [MARAVIROC]
CC50 at 48 h [1]: > 200 µM
CC50 at 48 h [2]: > 200 µM
CC50 at 48 h [3]: > 200 µM
CC50 at 48 h [4]: > 200 µM
Cmax [5]: 5.5 ng/mL
Tmax [6]: 120 min
AUC(0-inf) [7]: 12.4 ng·h/mL
half-life [8]: 54 min
half-life [9]: 54 min
clearance [10]: 74 mL/min/kg
IC50 (Cytochrome P450 1A2): > 25 µM
IC50 (Cytochrome P450 2C9): 14.4 µM
IC50 (Cytochrome P450 2C19): > 25 µM
IC50 (Cytochrome P450 2D6): > 25 µM
